# Assay results reported in patent US20260242351A1, “LZK INHIBITORS” (Uereka Biosciences, Inc., priority 2023, published 2026).
# Structures can show the parent of a compound that is named as a salt.
# How the values were obtained:
# LZK = biological target: T1, LZK (Homo sapiens, UniProt O43283); assay: LZK and DLK Inhibition Assay (competition binding to liganded affinity beads, qPCR readout): LZK; settings: kinase produced in HEK-293 cells, 11-point 3-fold dilution series
# T1 construct: made in house; host or cells: HEK-293 cells
# T1 sequence (O43283 1-966): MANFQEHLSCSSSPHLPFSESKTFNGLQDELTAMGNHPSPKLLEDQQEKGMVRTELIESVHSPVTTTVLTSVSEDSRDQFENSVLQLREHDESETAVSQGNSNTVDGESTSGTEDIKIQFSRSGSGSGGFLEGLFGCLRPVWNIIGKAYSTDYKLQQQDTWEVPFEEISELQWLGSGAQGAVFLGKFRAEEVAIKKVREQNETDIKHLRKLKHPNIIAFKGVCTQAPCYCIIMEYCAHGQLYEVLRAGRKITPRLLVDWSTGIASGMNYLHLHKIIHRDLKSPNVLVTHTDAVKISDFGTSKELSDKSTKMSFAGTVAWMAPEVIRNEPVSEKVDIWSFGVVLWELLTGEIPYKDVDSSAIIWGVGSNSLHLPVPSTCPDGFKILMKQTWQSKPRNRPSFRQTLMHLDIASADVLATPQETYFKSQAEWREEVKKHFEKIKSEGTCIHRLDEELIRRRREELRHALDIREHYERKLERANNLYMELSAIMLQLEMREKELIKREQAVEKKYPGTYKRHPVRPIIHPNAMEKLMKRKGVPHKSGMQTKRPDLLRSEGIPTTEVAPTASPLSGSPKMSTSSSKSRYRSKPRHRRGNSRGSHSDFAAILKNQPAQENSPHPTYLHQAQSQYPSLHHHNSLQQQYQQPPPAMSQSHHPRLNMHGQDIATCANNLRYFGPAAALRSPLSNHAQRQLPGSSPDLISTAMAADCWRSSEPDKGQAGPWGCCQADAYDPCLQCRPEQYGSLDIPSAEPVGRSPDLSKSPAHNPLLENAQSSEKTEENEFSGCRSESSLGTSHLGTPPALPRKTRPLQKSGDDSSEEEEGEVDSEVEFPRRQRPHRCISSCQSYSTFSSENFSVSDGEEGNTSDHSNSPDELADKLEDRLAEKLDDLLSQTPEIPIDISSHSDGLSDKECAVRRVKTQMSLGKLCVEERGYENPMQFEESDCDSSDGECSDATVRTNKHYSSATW
# Method: (§1) The kinases were produced in HEK-293 cells and subsequently tagged with DNA for qPCR detection. Streptavidin-coated magnetic beads were treated with biotinylated small molecule ligands for 30 minutes at room temperature to generate affinity resins for the kinase assays. The liganded beads were blocked with excess biotin and washed with blocking buffer (SeaBlock (Pierce), 1% BSA, 0.05% Tween 20, 1 mM DTT) to remove unbound ligand and to reduce non-specific binding. Binding reactions were assembled by combining LZK and DLK kinases, liganded affinity beads, and test compounds in 1× binding buffer (20% SeaBlock, 0.17×PBS, 0.05% Tween 20, 6 mM DTT). Test compounds were prepared as 111× stocks in 100% DMSO. Kds were determined using an 11-point 3-fold compound dilution series with three DMSO control points. All compounds for Kd measurements are distributed by acoustic transfer (non-contact dispensing) in 100% DMSO. The compounds were then diluted directly into the assays such that the final concentration of DMSO was 0.9%. All reactions performed in polypropylene 384-well plate. Each was a final volume of 0.02 mL. The assay plates were incubated at room temperature with shaking for 1 hour and the affinity beads were washed with wash buffer (lx PBS, 0.05% Tween 20). The beads were then re-suspended in elution buffer (1×PBS, 0.05% Tween 20, 0.5 μM nonbiotinylated affinity ligand) and incubated at room temperature with shaking for 30 minutes. The kinase concentration in the eluates was measured by qPCR.
# DLK = biological target: T2, DLK (Homo sapiens, UniProt Q12852); assay: LZK and DLK Inhibition Assay (competition binding to liganded affinity beads, qPCR readout): DLK; settings: kinase produced in HEK-293 cells, 11-point 3-fold dilution series
# T2 construct: made in house; host or cells: HEK-293 cells
# T2 sequence (Q12852 1-859): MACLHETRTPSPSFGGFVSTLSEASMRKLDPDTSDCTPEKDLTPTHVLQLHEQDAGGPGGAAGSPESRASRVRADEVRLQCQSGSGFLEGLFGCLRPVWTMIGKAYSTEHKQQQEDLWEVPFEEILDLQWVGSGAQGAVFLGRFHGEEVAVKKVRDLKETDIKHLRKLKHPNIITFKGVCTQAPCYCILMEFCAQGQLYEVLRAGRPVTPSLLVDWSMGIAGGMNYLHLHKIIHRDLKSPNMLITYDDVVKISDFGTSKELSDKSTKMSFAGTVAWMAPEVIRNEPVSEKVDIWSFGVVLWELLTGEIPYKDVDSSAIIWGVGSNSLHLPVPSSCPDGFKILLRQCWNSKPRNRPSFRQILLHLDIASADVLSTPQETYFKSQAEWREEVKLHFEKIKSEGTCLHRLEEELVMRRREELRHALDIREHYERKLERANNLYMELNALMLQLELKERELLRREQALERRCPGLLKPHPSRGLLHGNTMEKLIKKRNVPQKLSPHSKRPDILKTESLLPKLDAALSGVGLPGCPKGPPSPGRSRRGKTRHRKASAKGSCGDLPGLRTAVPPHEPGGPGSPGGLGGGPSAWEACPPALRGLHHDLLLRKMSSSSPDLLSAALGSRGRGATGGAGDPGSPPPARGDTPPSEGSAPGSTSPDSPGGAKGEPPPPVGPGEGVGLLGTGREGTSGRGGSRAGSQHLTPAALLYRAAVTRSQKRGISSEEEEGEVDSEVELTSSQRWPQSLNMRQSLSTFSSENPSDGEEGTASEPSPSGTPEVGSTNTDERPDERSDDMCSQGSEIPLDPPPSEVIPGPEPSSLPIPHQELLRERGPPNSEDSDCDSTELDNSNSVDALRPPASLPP
# Method: as §1
SMILES,IC50 (LZK),IC50 (DLK)
"Fc1c(N2CCNCC2)cc(Nc2ccc(C(F)F)cn2)nc1N1CCOCC1 [Compound 3, N-(5-(Difluoromethyl)pyridin-2-yl)-5-fluoro-6-morpholino-4-(piperazin-1-yl)pyridin-2-amine di-TFA salt]",100 to 1000 nM,100 to 1000 nM
"Fc1c(N2CC3CC2CN3)cc(Nc2ccc(C(F)F)cn2)nc1N1CCOCC1 (stereo not shown) [Compound 4, 4-(2,5-Diazabicyclo[2.2.1]heptan-2-yl)-N-(5-(difluoromethyl)pyridin-2-yl)-5-fluoro-6-morpholinopyridin-2-amine di-TFA salt]",1000 to 10000 nM,1000 to 10000 nM
"Fc1c(N2CCNCC2)cc(Nc2ccc(C(F)(F)F)cn2)nc1N1CCOCC1 [Compound 5, 5-Fluoro-6-morpholino-4-(piperazin-1-yl)-N-(5-(trifluoromethyl)pyridin-2-yl)pyridin-2-amine]",100 to 1000 nM,1000 to 10000 nM
"Fc1c(N2CC3CC2CN3)cc(Nc2ccc(C(F)(F)F)cn2)nc1N1CCOCC1 (stereo not shown) [Compound 6, 4-(2,5-Diazabicyclo[2.2.1]heptan-2-yl)-5-fluoro-6-morpholino-N-(5-(trifluoromethyl)pyridin-2-yl)pyridin-2-amine]",1000 to 10000 nM,1000 to 10000 nM
"N#Cc1c(C2CCN(CC3CC3)CC2)cc(Nc2cnc(C3CC3)cn2)nc1N1CC2CC2C1 (stereo not shown) [Compound 8, 2-(3-Azabicyclo[3.1.0]hexan-3-yl)-4-(1-(cyclopropylmethyl)piperidin-4-yl)-6-((5-cyclopropylpyrazin-2-yl)amino)nicotinonitrile formic acid salt]",≤ 100 nM,≤ 100 nM
"Fc1c(N2CCNCC2)cc(Nc2cnc(C3CC3)cn2)nc1N1CCOCC1 [Compound 10, 5-Cyclopropyl-N-(5-fluoro-6-morpholino-4-(piperazin-1-yl)pyridin-2-yl)pyrazin-2-amine]",≤ 100 nM,–

# Next, values leading:
IC50 (LZK),IC50 (DLK),SMILES
≤ 100 nM,≤ 100 nM,"Fc1c(C2CCN(CC3CC3)CC2)cc(Nc2cnc(C3CC3)cn2)nc1N1CC2CC2C1 (stereo not shown) [Compound 1, N-(6-(3-Azabicyclo[3.1.0]hexan-3-yl)-4-(1-(cyclopropylmethyl)piperidin-4-yl)-5-fluoropyridin-2-yl)-5-cyclopropylpyrazin-2-amine]"
100 to 1000 nM,≤ 100 nM,"Fc1c(C2CCN(CC3CC3)CC2)cc(N2CC3CC3C2)nc1Nc1cnc(C2CC2)cn1 (stereo not shown) [Compound 2, N-(6-(3-Azabicyclo[3.1.0]hexan-3-yl)-4-(1-(cyclopropylmethyl)piperidin-4-yl)-3-fluoropyridin-2-yl)-5-cyclopropylpyrazin-2-amine]"
1000 to 10000 nM,1000 to 10000 nM,"Clc1c(C2CCN(CC3CC3)CC2)cc(Nc2cnc(C3CC3)cn2)nc1N1CC2CC2C1 (stereo not shown) [Compound 7, N-(6-(3-Azabicyclo[3.1.0]hexan-3-yl)-5-chloro-4-(1-(cyclopropylmethyl)piperidin-4-yl)pyridin-2-yl)-5-cyclopropylpyrazin-2-amine TFA salt]"
≤ 100 nM,≤ 100 nM,"Nc1c(C2CCN(CC3CC3)CC2)cc(Nc2cnc(C3CC3)cn2)nc1N1CC2CC2C1 (stereo not shown) [Compound 9, 6-(3-azabicyclo[3.1.0]hexan-3-yl)-4-(1-(cyclopropylmethyl)piperidin-4-yl)-N2-(5-cyclopropylpyrazin-2-yl)pyridine-2,5-diamine 2,2,2-trifluoroacetate]"
